Source: US12492204B2, “Substituted (7H-pyrrolo[2,3-D]pyrimidin-4-yl) amino compounds useful as JAK 1 inhibitors” (CHEMWERTH, INC., priority 2019, dated 2025)

Legend:
[1] = biological target: JAK1 (Homo sapiens (Human), UniProt P23458); assay: JAK1 enzymatic assay; format: biochemical; details: for IC50: ATP 66 μM, Peptide D; for selectivity for JAK1 over JAK2 / selectivity for JAK1 over JAK3: from enzymatic IC50 values; for selectivity for JAK1 over JAK2: JAK1 vs JAK2; for selectivity for JAK1 over JAK3: JAK1 vs JAK3
Description: (§1) A. JAK1, JAK2, and JAK3 Enzymatic Assays
(§2) The JAK enzymatic assay used the following reagents.
(§3) Preparation of assay plate. Each sample or reference compound was diluted to 50× the desired highest inhibitor concentration with DMSO. Each sample or reference compound was serially diluted using a 96-well source plate so that there were 10 concentrations for testing. 10 μL from each well of the source plate was transferred to a 96-well intermediate plate. […] 5 μL from each well of the 96-well intermediate plate was transferred to a 384-well plate.
(§4) Kinase reaction. […] The term “max” refers to the DMSO control and “min” stands for low control. Curve-fitting of the data was performed using Xlfit excel add-in version 5.4.0.8 to obtain IC50 values. Equation used was Y=Bottom+(Top−Bottom)/(1+(Log IC50/X)^HillSlope. The peptide substrates used for each kinase, peptide concentration, enzyme concentration, and ATP concentrations are presented in TABLE 2.

[2] = biological target: JAK2 (Homo sapiens (Human), UniProt O60674); assay: JAK2 enzymatic assay; format: biochemical; details: ATP 6.5 μM, Peptide22
Description: as §1, §2
JAK2 (Carna Bio, USA, Inc. Natick, MA, Cat.No. 08-045)
as §3, §4

[3] = biological target: JAK3 (Homo sapiens (Human), UniProt P52333); assay: JAK3 enzymatic assay; format: biochemical; details: ATP 6.2 μM, Peptide22
Description: as §1, §2
JAK3 (Carna Bio, USA, Inc. Natick, MA, Cat.No. 08-046)
as §3, §4

[4] = biological target: TYK2 (Homo sapiens (Human), UniProt P29597); assay: TYK2 enzymatic assay; format: biochemical; details: ATP 16 μM, Peptide30
[5] = Metabolic stability assay (liver microsomes); format: in vitro ADME; details: dog liver microsomes; for Percent Remaining (%) 0 min / Percent Remaining (%) 5 min / Percent Remaining (%) 15 min / Percent Remaining (%) 30 min / Percent Remaining (%) 45 min: mean; for half-lives as compared with the reference compounds: vs Oclacitinib and ketanserin; for CLint scaled at 1 µM / half-life at 1 µM: pooled liver microsomes, pH 7.4
Description: Stock solutions of the sample and reference compounds were prepared in DMSO (10 mM). A spiking solution (500 μM) was prepared for each sample compound and reference compound by diluting 10 μL of the stock solution in ACN (190 μL). A microsomal spiking solution having a microsome concentration of 0.75 mg/mL was prepared for each sample: 1.5 μL of the respective 500 μM spiking solution was mixed with 18.75 μL microsomal solution (pooled liver microsomes, 20 mg/mL in 250 mM sucrose, Corning, Cat. No. 452601, Lot. No. 8176003) and 479.75 μL buffer (0.1 M potassium phosphate buffer, 1.0 mM EDTA, pH 7.4). The microsomal spiking solutions were cooled on ice. Assay plates with wells designated for different time points (0, 5, 15, 30 and 45 minutes) were cooled on ice. 30 μL of each microsomal spiking solution was added to the wells designated for different time points (0, 5, 15, 30 and 45 minutes). 135 μL of ACN containing IS was added to the wells of the plate labelled 0 minutes followed by 15 μL of the NaDPH stock solution (6 mM NaDPH in 0.1 M Potassium Phosphate buffer, 1.0 mM EDTA, pH 7.4). The plates for 5, 15, 30 and 45 minutes were incubated at 37° C. for 5 minutes. At 5 min, […], 30 min, and 45 min, 135 μL of ACN containing IS was added to the wells of the corresponding plates to quench the reaction. The plates were shaken [IKA vibrator, MTS 2/4] for 10 minutes and centrifuged at 5594 G for 15 minutes (Thermo Multifuge×3R). 50 μL of the supernatant from each well was transferred to a 96-well sample plate containing 50 μL of ultrapure water (Millipore, ZMQS50F01) for LC-MS analysis.

TYK2, sequence (P29597 whole entry): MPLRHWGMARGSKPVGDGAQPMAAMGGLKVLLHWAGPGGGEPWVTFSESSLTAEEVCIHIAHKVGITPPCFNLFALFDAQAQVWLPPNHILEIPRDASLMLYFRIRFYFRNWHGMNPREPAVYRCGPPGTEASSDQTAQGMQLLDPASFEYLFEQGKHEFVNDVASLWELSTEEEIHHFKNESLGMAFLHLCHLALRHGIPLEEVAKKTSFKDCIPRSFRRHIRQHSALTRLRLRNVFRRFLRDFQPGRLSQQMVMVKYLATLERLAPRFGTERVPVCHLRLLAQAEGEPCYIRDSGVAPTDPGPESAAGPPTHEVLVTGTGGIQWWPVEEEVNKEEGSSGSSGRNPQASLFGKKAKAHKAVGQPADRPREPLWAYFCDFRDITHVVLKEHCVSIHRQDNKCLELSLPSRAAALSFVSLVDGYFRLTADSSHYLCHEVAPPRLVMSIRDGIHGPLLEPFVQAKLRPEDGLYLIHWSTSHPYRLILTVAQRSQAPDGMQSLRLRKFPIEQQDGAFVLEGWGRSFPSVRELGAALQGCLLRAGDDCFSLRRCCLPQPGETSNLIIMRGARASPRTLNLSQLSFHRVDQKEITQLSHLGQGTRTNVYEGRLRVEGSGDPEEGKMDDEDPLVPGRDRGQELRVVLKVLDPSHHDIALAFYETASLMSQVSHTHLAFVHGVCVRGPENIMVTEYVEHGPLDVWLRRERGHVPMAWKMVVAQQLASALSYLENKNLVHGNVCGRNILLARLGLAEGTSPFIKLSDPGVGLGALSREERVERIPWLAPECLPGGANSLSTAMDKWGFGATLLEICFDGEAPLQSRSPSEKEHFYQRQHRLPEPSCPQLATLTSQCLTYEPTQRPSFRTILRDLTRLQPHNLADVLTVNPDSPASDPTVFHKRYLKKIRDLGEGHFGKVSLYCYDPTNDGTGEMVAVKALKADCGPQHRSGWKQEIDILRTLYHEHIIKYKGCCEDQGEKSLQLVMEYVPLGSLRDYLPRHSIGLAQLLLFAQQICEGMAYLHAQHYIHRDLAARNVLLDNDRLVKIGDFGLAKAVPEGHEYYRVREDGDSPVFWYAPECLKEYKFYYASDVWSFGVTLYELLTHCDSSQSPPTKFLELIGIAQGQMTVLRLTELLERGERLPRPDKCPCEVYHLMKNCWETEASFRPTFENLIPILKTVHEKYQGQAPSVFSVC
JAK3, sequence (P52333 whole entry): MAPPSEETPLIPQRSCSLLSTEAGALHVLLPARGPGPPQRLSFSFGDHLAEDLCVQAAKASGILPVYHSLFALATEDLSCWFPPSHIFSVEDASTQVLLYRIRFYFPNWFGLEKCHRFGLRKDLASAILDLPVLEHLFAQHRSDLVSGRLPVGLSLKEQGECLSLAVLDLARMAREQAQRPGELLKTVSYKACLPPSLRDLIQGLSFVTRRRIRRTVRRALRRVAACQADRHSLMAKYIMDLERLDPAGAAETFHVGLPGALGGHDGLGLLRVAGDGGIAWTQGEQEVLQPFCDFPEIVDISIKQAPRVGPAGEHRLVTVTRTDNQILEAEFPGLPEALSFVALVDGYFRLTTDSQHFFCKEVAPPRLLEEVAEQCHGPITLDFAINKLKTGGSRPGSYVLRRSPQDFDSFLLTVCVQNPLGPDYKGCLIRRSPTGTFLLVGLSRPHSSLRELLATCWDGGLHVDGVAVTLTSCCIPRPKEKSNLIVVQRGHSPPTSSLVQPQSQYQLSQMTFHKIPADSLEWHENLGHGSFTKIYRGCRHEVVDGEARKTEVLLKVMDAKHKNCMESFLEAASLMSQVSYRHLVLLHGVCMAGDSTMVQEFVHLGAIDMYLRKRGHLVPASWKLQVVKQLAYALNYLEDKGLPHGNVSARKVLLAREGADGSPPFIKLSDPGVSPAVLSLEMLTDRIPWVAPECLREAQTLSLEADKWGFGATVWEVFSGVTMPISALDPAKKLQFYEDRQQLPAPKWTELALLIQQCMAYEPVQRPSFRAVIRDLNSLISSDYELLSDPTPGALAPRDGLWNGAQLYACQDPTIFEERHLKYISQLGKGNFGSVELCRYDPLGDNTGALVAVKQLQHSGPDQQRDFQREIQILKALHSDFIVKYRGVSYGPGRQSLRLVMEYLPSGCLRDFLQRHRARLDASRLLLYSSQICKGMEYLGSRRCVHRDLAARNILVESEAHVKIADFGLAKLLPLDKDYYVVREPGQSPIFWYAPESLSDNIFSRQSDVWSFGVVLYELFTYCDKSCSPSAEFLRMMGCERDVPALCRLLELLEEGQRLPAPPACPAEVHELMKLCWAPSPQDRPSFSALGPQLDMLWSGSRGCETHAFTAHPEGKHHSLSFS
JAK1, sequence (P23458 whole entry): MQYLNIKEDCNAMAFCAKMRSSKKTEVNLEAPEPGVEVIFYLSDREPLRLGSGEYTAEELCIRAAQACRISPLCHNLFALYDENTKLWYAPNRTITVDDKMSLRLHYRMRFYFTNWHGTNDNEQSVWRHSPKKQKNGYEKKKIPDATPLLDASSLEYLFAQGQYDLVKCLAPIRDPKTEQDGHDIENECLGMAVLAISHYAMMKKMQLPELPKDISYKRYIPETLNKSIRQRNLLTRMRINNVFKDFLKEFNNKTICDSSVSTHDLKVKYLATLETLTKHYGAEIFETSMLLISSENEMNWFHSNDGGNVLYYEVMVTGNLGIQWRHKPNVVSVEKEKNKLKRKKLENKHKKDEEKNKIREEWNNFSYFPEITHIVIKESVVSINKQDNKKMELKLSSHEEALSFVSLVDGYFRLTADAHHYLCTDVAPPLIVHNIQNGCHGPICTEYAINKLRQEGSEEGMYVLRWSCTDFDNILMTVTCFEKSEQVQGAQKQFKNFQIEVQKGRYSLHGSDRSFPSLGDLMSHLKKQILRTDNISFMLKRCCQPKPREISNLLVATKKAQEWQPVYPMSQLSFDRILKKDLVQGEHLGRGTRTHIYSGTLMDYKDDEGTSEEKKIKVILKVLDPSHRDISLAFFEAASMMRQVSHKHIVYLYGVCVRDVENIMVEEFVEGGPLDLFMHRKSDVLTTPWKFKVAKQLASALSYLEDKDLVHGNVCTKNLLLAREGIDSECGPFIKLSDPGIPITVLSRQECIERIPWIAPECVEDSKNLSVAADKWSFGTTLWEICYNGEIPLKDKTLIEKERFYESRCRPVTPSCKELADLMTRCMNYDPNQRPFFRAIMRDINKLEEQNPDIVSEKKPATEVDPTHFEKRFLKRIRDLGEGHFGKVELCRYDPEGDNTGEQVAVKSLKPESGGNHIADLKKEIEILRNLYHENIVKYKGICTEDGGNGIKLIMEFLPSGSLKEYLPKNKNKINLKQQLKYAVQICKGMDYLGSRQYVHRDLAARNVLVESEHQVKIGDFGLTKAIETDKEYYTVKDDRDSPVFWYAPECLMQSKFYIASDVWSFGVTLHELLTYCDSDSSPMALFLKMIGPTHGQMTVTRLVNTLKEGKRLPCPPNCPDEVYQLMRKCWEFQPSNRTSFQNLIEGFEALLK
JAK2, sequence (O60674 whole entry): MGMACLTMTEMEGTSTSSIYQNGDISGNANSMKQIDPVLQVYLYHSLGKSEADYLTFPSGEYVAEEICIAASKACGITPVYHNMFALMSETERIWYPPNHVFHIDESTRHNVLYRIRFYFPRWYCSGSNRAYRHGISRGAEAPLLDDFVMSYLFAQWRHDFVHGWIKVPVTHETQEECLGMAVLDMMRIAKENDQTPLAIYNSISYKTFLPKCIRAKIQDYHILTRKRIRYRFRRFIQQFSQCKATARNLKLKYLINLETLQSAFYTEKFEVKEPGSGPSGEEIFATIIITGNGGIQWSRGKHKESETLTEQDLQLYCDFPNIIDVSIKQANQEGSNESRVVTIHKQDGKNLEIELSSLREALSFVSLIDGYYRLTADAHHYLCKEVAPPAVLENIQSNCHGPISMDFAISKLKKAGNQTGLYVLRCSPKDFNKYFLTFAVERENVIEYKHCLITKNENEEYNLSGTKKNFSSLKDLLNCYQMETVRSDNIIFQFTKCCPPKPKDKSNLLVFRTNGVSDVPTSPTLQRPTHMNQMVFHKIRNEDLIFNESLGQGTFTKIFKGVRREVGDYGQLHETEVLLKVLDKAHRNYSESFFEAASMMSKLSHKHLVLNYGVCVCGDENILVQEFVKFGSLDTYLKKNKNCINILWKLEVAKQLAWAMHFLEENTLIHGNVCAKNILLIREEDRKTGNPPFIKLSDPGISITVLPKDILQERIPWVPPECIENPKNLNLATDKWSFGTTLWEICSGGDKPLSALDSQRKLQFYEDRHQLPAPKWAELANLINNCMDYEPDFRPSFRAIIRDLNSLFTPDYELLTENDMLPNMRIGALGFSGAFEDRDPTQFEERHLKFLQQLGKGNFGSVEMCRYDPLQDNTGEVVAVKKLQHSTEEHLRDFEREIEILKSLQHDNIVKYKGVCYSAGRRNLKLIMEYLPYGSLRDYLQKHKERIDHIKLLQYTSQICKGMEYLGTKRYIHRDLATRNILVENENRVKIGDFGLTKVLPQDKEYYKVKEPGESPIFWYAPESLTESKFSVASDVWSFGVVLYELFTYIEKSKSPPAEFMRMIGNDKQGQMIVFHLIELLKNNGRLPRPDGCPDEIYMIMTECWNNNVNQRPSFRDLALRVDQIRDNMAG

Row | Compound | IC50 [1] [nM] | selectivity for JAK1 over JAK2 [1] | selectivity for JAK1 over JAK3 [1] [fold] | IC50 [2] [nM] | IC50 [3] [nM] | IC50 [4] [nM] | Percent Remaining (%) 0 min [5] [%] | Percent Remaining (%) 5 min [5] [%] | Percent Remaining (%) 15 min [5] [%] | Percent Remaining (%) 30 min [5] [%] | Percent Remaining (%) 45 min [5] [%] | half-lives as compared with the reference compounds [5] | CLint scaled at 1 µM [5] [mL/min/kg] | half-life at 1 µM [5] [min]
1 | CNC(=O)N[C@H]1CC[C@H](N(C)c2ncnc3[nH]ccc23)CC1 [Compound 1, 1-methyl-3-((1r,4r)-4-(methyl(7H-pyrrolo[2,3-d]pyrimidin-4-yl)amino)cyclohexyl)urea] | 156 | 87% | 3.96 | 292 | 618 | 3820 | – | – | – | – | – | – | – | –
2 | CCNC(=O)N[C@H]1CC[C@H](N(C)c2ncnc3[nH]ccc23)CC1 [Compound 2, 1-ethyl-3-((1r,4r)-4-(methyl(7H-pyrrolo[2,3-d]pyrimidin-4-yl)amino)cyclohexyl)urea] | 43 | 2.9 fold | 10.4 | 126 | 447 | 1790 | – | – | – | – | – | – | – | –
3 | CCCNC(=O)N[C@H]1CC[C@@H](N(C)c2ncnc3[nH]ccc23)CC1 [Compound 3, 1-propyl-3-((1r,4r)-4-(methyl(7H-pyrrolo[2,3-d]pyrimidin-4-yl)amino)cyclohexyl)urea] | 19 | 3.7 fold | 10.9 | 70 | 207 | 1510 | 100.00 | 94.76 | 86.94 | 75.53 | 73.67 | dramatically improved half-lives | 35.4 | 97.7
4 | CC(C)NC(=O)N[C@H]1CC[C@H](N(C)c2ncnc3[nH]ccc23)CC1 [Compound 4, 1-isopropyl-3-((1r,4r)-4-(methyl(7H-pyrrolo[2,3-d]pyrimidin-4-yl)amino)cyclohexyl)urea] | 40 | 3.35 fold | 15.4 | 134 | 615 | 2710 | – | – | – | – | – | – | – | –
5 | CN(c1ncnc2[nH]ccc12)[C@H]1CC[C@H](NC(=O)NCC#N)CC1 [Compound 5, 1-(cyanomethyl)-3-((1r,4r)-4-(methyl(7H-pyrrolo[2,3-d]pyrimidin-4-yl)amino)cyclohexyl)urea] | 7.5 | 2.4 fold | 3.5 | 18 | 26 | 415 | 100.00 | 100.66 | 95.39 | 87.57 | 86.91 | dramatically improved half-lives | 18.2 | 189
6 | CN(c1ncnc2[nH]ccc12)[C@H]1CC[C@H](NC(=O)NCC(F)(F)F)CC1 [Compound 6, 1-((1r,4r)-4-(methyl(7H-pyrrolo[2,3-d]pyrimidin-4-yl)amino)cyclohexyl)-3-(2,2,2-trifluoroethyl)urea] | 2.3 | 6 fold | 18.3 | 14 | 42 | 335 | 100.00 | 93.91 | 85.39 | 76.25 | 71.95 | dramatically improved half-lives | 36.5 | 94.7
7 | CNS(=O)(=O)C[C@H]1CC[C@H](N(C)c2ncnc3[nH]ccc23)CC1 [Oclacitinib, reference compound] | 6.6 | 45% | 10.6 | 9.3 | 70 | 77 | 100.00 | 94.12 | 82.56 | 68.65 | 62.97 | – | 53 | 65.2
8 | O=C(c1ccc(F)cc1)C1CCN(CCn2c(=O)[nH]c3ccccc3c2=O)CC1 [ketanserin, reference compound] | – | – | – | – | – | – | 100.00 | 82.91 | 62.01 | 42.37 | 36.16 | – | 114 | 30.3
